Like-named read-outs stand apart in the source and are kept apart here.
Legend:
[1] = Neutral fraction at pH 7.4 calculated from pKa; type: physicochemical; conditions: neutral fraction at perfusion fluid pH 7.40, calculated from pKa
[2] = rat
[3] = rat, in vivo, pH 7.4
[4] = for Brain Kin: calculated at brain blood flow […] and rat serum fu; for Extraction (unbound) / Brain vascular extraction (total): calculated at brain blood flow […]; for Extraction (unbound): free drug; for Brain vascular extraction (total): with rat serum fu; for Maximal flow—90% extraction, PcS/2.3: pH 7.4
[5] = ref Hansch et al. [123], Avdeef [46] or other sources, cited from earlier work; for Log Poct: octanol partition coefficient
[6] = rat in vivo measurements; cited from earlier work
[7] = rat in vivo measurements; cited from earlier work; remark: listed apart in the source
[8] = In situ rat brain perfusion (brain uptake Kin, extraction E, BBB PS); conditions: for Log Pc: Pc in cm/s; for Log Po: Po in cm/s; for Log PoS: PoS in mL/s/g; for Pc / Po: S assumed 100 cm^2/g; for PcS: cerebral cortex, S = physiological saline, AB = artificial blood
[9] = intrinsic PS of neutral solute, PoS = PcS/fn, flow 0.1–[…]

SMILES | fn (%) [1] [%] | half-life ([2]; brain) [min] | Log Pc [3] | Log PoS [3] | Pc [3] [cm/s] | PcS [3] [mL/s/g] | PoS [3] [mL/s/g] | Log Po [3] | Po [3] [cm/s] | Brain Kin [4] [mL/s/g] | Extraction (unbound) [4] [%] | Brain vascular extraction (total) [4] [%] | Log Poct [5] | Log Doct pH=7.4 [5] | fu,.p [6] | Brain Vu,br [7] [mL/g] | other results
OC[C@@H](O)[C@@H](O)[C@H](O)[C@H](O)CO [Mannitol] | 100 | 109 | −7.06 | −5.06 | 8.8e-08 | 8.8e-06 | 8.8e-06 | −7.06 | 8.8e-08 | 8.8e-06 | 3.67E-04 | 3.67E-04 | −3.10 | −3.10 | 1.00 | 0.08 | 
OC[C@@H](O)[C@@H](O)CO [Erythritol] | 100 | 160 | −6.49 | −4.49 | 3.24e-07 | 3.2e-05 | 3.24e-05 | −6.49 | 3.24e-07 | 9.27e-05 | 0.15 | 0.15 | −2.29 | −2.29 | 1.00 | 0.50 | 
O=C1NC(=O)C(c2ccccc2)(c2ccccc2)N1 [Phenytoin] | 88.4 | 6.02 | −3.58 | −1.53 | 0.000263 | 0.026 | 0.0298 | −3.53 | 0.000298 | 0.00364 | 66.6 | 15.2 | 2.24 | 2.17 | 0.15 | 12.7 | 
OCCCCCCO [1,6-Hexanediol] | 100 | 0.72 | −3.42 | −1.42 | 0.000379 | 0.038 | 0.0379 | −3.42 | 0.000379 | 0.0182 | 96.3 | 75.9 | 0.83 | 0.83 | 0.9 | 1.27 | 
Cn1nnc2c(C(N)=O)ncn2c1=O [Temozolamide] | 100 | 7.65 | −4.79 | −2.79 | 1.63e-05 | 0.0016 | 0.00163 | −4.79 | 1.63e-05 | 0.00464 | 4.3 | 5.3 | −1.04 | −1.04 | 0.80 | 1.05 | 
CC(=O)[C@H]1CC[C@H]2[C@@H]3CCC4=CC(=O)CC[C@]4(C)[C@H]3CC[C@]12C [Progesterone] | 100 | 0.42 |  |  |  |  |  |  |  |  |  |  | 3.48 | 3.48 | 0.03 | 28.6 | 
OC[C@H]1O[C@@](CO)(O[C@H]2O[C@H](CO)[C@@H](O)[C@H](O)[C@H]2O)[C@@H](O)[C@@H]1O [Sucrose] | 100 | 120 |  |  |  |  |  |  |  |  | 2.00E-04 | 2.00E-04 | −3.57 | −3.57 | 1.00 | 0.05 | 
CNC(N)=O [Methylurea] | 100 |  |  |  |  |  |  |  |  | 0.000563 | 0.79 | 0.79 | −1.40 | −1.40 | 1.00 | 1.04 | Log Pc [8]: −5.72; Log Po [8]: −5.72; Log PoS [8]: −3.72; Pc [8]: 1.91e-06 cm/s; Po [8]: 1.91e-06 cm/s; PoS ([8]; brain vascular intrinsic PoS): 0.000191 mL/s/g; PcS ([8]; flow 0.1–[…]): 0.00019 mL/s/g; PoS [8, 9]: 0.000191 mL/s/g
CC(O)CO (stereo not drawn) [1,2-Propanediol] | 100 |  |  |  |  |  |  |  |  | 0.0112 | 8.6 | 8.6 | −1.04 | −1.04 | 1.00 | 1.04 | Log Pc [8]: −4.67; Log Po [8]: −4.67; Log PoS [8]: −2.67; Pc [8]: 2.16e-05 cm/s; Po [8]: 2.16e-05 cm/s; PoS ([8]; brain vascular intrinsic PoS): 0.00216 mL/s/g; PcS ([8]; flow 0.1–[…]): 0.0022 mL/s/g; PoS [8, 9]: 0.00216 mL/s/g
Cc1c(N(C)C)c(=O)n(-c2ccccc2)n1C [Aminopyrine] | 99.0 | 0.76 |  |  |  |  |  |  |  | 0.0201 | 89.8 | 83.9 |  |  | 0.80 | 1.67 | 
CCCCNS(=O)(=O)c1ccccc1 [N-butyl-benzene sulfonamide] | 100 |  |  |  |  |  |  |  |  |  |  |  | 2.20 | 2.20 | 0.30 | 10 | Maximal flow—90% extraction, PcS/2.3 [4]: 0.17 mL/s/g; Log Pc [8]: −2.42; Log Po [8]: −2.42; Log PoS [8]: −0.42; Pc [8]: 0.0038 cm/s; Po [8]: 0.0038 cm/s; PoS ([8]; brain vascular intrinsic PoS): 0.38 mL/s/g; PcS ([8]; flow 0.1–[…]): 0.38 mL/s/g; PoS [8, 9]: 0.38 mL/s/g
CC(C)NCC(O)COc1cccc2ccccc12 (stereo not drawn) [Propranolol] | 0.74 | 3.93 |  |  |  |  |  |  |  | 0.00806 | 98.3 | 30.5 |  |  | 0.09 | 27.8 | 
CNCCC(Oc1ccc(C(F)(F)F)cc1)c1ccccc1 (stereo not drawn) [Fluoxetine] | 0.27 | 15.8 |  |  |  |  |  |  |  | 0.0105 | 100 | 21.3 | 4.50 |  | 0.028 | 250 | 
Cn1c(=O)c2c(ncn2C)n(C)c1=O [Caffeine] | 100 | 0.94 |  |  |  |  |  |  |  | 0.0152 | 64.7 | 63.2 |  |  |  | 1.28 | 
O=C1Nc2ccc(Cl)cc2C(c2ccccc2Cl)=NC1O (stereo not drawn) [Lorazepam] | 100 |  |  |  |  |  |  |  |  |  |  |  |  |  | 0.16 | 15.87 | half-life [2]: 1.39 min; Maximal flow—90% extraction, PcS/2.3 [4]: 0.13 mL/s/g; Log Pc [8]: −2.52; Log Po [8]: −2.52; Log PoS [8]: −0.52; Pc [8]: 0.003 cm/s; Po [8]: 0.003 cm/s; PcS ([8]; flow 0.1–[…]): 0.30 mL/s/g; PoS [8, 9]: 0.30 mL/s/g
